Experimental data from patent US20210046079A1, “COMBINATION THERAPY TO IMPROVE BRAIN FUNCTION OR PROMOTE NEUROGENESIS FOR TREATING NEURODEGENERATIVE CONDITIONS” (UNIVERSITY OF CENTRAL FLORIDA RESEARCH FOUNDATION, INC., priority 2016, published 2021).
“Also recorded” adds a separate entry of the source. Counter-ions that a name gives are not always drawn.

Tests used:
[1] = test system: neural stem cells; test: Cell counting after immunohistochemistry of postmortem brains (BrdU, βIII-tublin, GFAP); format: in vivo, mice
Description: Once mice reach the criterion for the pre-treatment behavioral testings, posiphen (25 mg/kg) was injected (s.c.) once a day for 7 consecutive days; followed by a combination of posiphen (25 mg/kg) and NBI-18 (0, 3, 10 mg/kg) was, injected (s.c.) once a day, for seven consecutive days; followed by another series of posiphen (25 mg/kg) injections (s.c.) once a day, for seven consecutive days. On the final two days of the combination injections, an injection of BrdU (100 mg/kg) was administered separately (s.c.) once per day.

[2] = Kidney or liver toxicity; conditions: in vivo
[3] = test system: 5xFAD mice; test: Radial water maze test of 5xFAD mice; format: in vivo; conditions: for number of errors in the trial (memory), radial water maze: 5xFAD mice, compared to wild type
Text: B 6SJL-Tg(APPSwF1Lon,PSEN1*M146L*L286V)6799Vas/Mmjax transgenic (5xFAD) mice, which have 5 familial AD (FAD) mutant human genes, show pathological and behavioral signs of AD, including Aβdeposition at 2 months and progressive deficits in behavior. 5xFAD mice have successfully modeled behavior deficits seen in Alzheimer's disease in previous studies, and have been previously evaluated using the Morris water maze, open field test, and radial arm water maze. We purchased 2 males and 4 females heterozygous 5XFAD mice as breeders. We housed breeders in pairs of one male and 2 females. Gestation lasts 19-21 days. Pups (about 5-6 in each delivery) were weaned at (removed from breeding cage and separated) at 3 weeks of age. Tissue for genotyping was collected at the same time that ID numbers are applied. The genotyping was performed by PCR amplification of the SFAD gene. We used male 5xFAD mice (8months old) for this study.
The radial water maze test was performed using a maze with six arms (32 cm length and 19 cm width) radiated from the central circular region (36 cm diameter) placed in a circular pool (100 cm diameter). A clear round platform (9 cm diameter) was placed in one of the arms at 1.5 cm beneath the surface of the water, which was opacified with nontoxic white paint. The water was kept between 22-25° C. Surrounding the pool, a visual cue was placed at each end of the radial arms. Each session consists of four acquisition trials (T1-T4), followed by a 30-min delay interval and then a retention trial (T5). For each session, an escape platform was placed at the end of the goal arm, which was different between sessions. At the beginning of each trial, the mice were placed at the end of one of the remaining five non-goal arms. The mouse was positioned facing the wall, away from the center. Each trial lasts 60 seconds, during which an animal was allowed to swim in order to find the platform. The latency to locate the submerged platform and the number of entries to the non-goal arms were recorded as errors. […]

[4] = test system: cholinesterase; conditions: Greig et al., U.S. Patent Pub. 2004/0024043 and 2004/0138282; cited from earlier work
[5] = test system: APP; conditions: AD model animals and patients; cited from earlier work
[6] = test system: βAPP; conditions: Greig et al., U.S. Patent Pub. 2004/0024043 and 2004/0138282; cited from earlier work

Row | Structure (SMILES) | new neurons formed / neurogenesis in the brain ([1]; AD model mice, NBI-18 row: without Posiphen treatment, combination row: vs untreated AD model group) | dose at which the effect on stem cell proliferation is maxed out ([1]; brains of the animals used in the behavioral test) [mg/kg] | neural stem cell proliferation / number ([1]; brains of the animals used in the behavioral test, maleate) | dose range without detected kidney or liver toxicity [2] | number of errors in the trial (memory), radial water maze ([3]; NBI-18 3 mg/kg s.c. alone) | memory function / performance in memory tasks ([3]; AD model animals, summary statement, dose not stated) | cholinesterase activity [4] | number of errors in the trial (memory), radial water maze ([3]; Posiphen 25 mg/kg s.c. alone) | APP [5] | βAPP levels in the brain [6]
1 | CN1Cc2nc(N3CCNCC3)ncc2C1=O [NBI-18, 6-Methyl-2-(1-piperazinyl)-6,7-dihydro-5H-pyrrolo[3,4-d]-pyrimidin-5-one maleate] | does not reflect the increase of new neurons formed | 3 | significantly increases endogenous neural stem cells; also recorded: increased stem cell proliferation | up to 1000 mg/kg | showed significant memory deficit compare to the wild type | does not help to improve memory function | – | – | – | –
2 | CN1CC[C@]2(C)c3cc(OC(=O)Nc4ccccc4)ccc3N(C)[C@H]12 [Posiphen, (+)-phenserine] | – | – | – | – | – | – | lacks cholinesterase activity | showed significant memory deficit compare to the wild type | reduction of APP | dramatically reduces βAPP levels in the brain
